7 substances from patent publication US8080522B2, “Polyethlene glycol modifications of thymosin alpha-1” (Institute of Pharmacology and Toxicology Academy of …, priority 2005, dated 2011) can be followed below.

Bounds are passed on as bounds.

A short description of data set [1]: Half-life in liver homogenate (HPLC). The data set is classed as in vitro ADME. As to conditions: 37° C., sample 0.4 mg/mL or 0.8 mg/mL, read-out: t1/2 in liver homogenate (converted). On the procedure:
Experimental method: Prepare 0.4 mg/mL or 0.8 mg/mL sample aqueous solution in centrifuge tube, adding 50 μL liver homogenate. Then incubate for different time in 37° C. water bath. Terminate the reaction and precipitate liver homogenate protein by heating the mixture in boiling water for 5 minutes. Centrifuge it (10000 rpm) for 10 minutes. Analyze the supernatant by HPLC. The data was statistically analyzed by Origin Prof. 5.0.
HPLC: Column temperature: 25° C.; Flow rate 1.0 mL/min; Detection wavelength: 200 nm; Mobile phase A: 0.1% TFA/H2O; Mobile phase B: 0.1% TFA/70% CH3CN.

The test system of a further data set is spleen cell. Nature of the data set: Interferon-γ production of spleen cells stimulated by Con A (double antibody sandwich ELISA). The class given is cell-based. As to conditions: for Concentration of IFN-γ: Con A 0.5 μg/mL, 24 hours, n = 3; for Enhancement percentage: versus Con A alone. On the procedure: Prepare spleen cell suspension in sterile condition. Adjust cell concentration to 5×10^6 cell/mL by adding RPMI-1640 culture with 20% bovine serum. Add 0.5 mL cell suspension, 0.25 mL Con A (final concentration is 0.5 μg/mL) and 0.25 mL samples with different concentrations in 24-well plate; and add RPMI-1640 culture in control wells. Incubate the plates in a 5% CO2 chamber at 37° C. for 24 hours. Centrifuge and collect supernatant, test the content of IFN-γ in supernatant by double antibody sandwich ELISA. The protocol is according to the instruction on ELISA kit.
(In general: ELISA stands for enzyme-linked immunosorbent assay.)

Data set [2] can be described thus: Plasma concentration / pharmacokinetics in mouse (competitive ELISA). The data set is classed as in vivo. The following applies: 300 μg per mouse, injected peritoneally, parameters in 24 h; for AUC: n = 3; for Cmax / Tmax: serum, ip, 300 ug/animal; for Cmax: n = 3, read-out: Cmax; for Tmax: n = 3, read-out: Tmax. On the procedure: Coating antigen: Dilute Tα1 detection antigen stock solution to a final concentration of 2 μg/mL with coating solution, and add it into the wells of ELISA plate for 0.1 mL per well, and incubate at 4° C. for 5 days. Then wash the ELISA plate 3 times with washing buffer, each 0.2 mL/well and 3 min/time. Add 0.2 mL blocking buffer to each well, incubate for 1.5 hours at 37° C., wash plate 2 times by washing buffer, and spin dried.
Sample preparation: Weight sample accurately, dissolve it in saline to a concentration of 1.5 mg/mL. Administrate 0.2 Ml by injection to each mouse peritoneally. Collect blood sample in 3 min, 20 min, 40 min, 1 h, 2 h, 3 h, 6 h, 8 h, 12 h, and 24 h. Collect serum by centrifuge the blood samples for 5 minutes at 10000 rpm, stored at −20° C. in a freezer. o prepare test sample, […] was added by 0.1 mL 1:1500 rabbit anti-Tα1 serum (final concentration is 1:6000), and 0.2 mL CD-1® mouse serum, and […]. Prepare blank control at the same time. Total volume is 0.4 mL. Incubate for 2 hours at 37° C. To prepare standard sample, Tα1 0.1 mL with different concentrations from 0.0004 to 400 μg/mL was added by 0.1 mL 1:1500 rabbit anti-Tα1 serum (final concentration is 1:6000), and 0.2 mL CD-1® mouse serum. Prepare blank control at the same time. Total volume is 0.4 mL. Incubate for 2 hours at 37° C.
Sample Testing Add the prepared test sample and standard sample to ELISA plate, 0.1 mL/well, reacting for 1 hour in 37° C. chamber. Wash the plates 3 times, spin dryed. Add substrate 0.1 mL/well for 10 minutes. Add 2 mol/L H2SO4 0.05 mL to each well to terminate the reaction. Measure the OD value at 450 nm. Plot the standard curve with the concentration of Tα1 standard sample as abscissa and OD value as vertical coordinate. Calculate the content of test sample according to this standard curve.

Data set [3] relates to T lymphocyte (spleen cell). Briefly: T lymphocyte proliferation stimulated by Con A (3H-TdR incorporation). The class given is cell-based, mouse. As to conditions: for 3H-TdR incorporation (cpm, x ± SD): Con A 0.5 μg/mL, 72 hours, n = 4; for Enhancement percentage: versus Con A alone. As to the method:
Sacrifice mouse by draining artery blood, remove spleen in sterile condition, and make it to spleen cell suspension. After red blood cell lysis, wash for 3 times, and stain with Trypan Blue to count the living cells. The amount of living cells should be more than 95%. Dilute the cell concentration to 5×10^6 cell/mL by adding RPMI-1640 culture with 10% bovine serum. Add spleen cell suspension to a sterilized 96-well plate for 100 μL per well. The total amount is 200 μL per well (including 50 μL Con A and 50 μL medicament). Each sample concentration is repeated fro 3-4 wells. Incubate the plate in a 5% CO2 chamber for 72 hours, add 10 μci/mL ^3H-TdR 20 μL per well 16 hours before termination of the incubation, giving rise to a final concentration of 1.0 μci (37.0 KBq)/mL. Collect cells on filter membrane by using Herveste 96 cell harvester, dried in 80° C. oven for 20 minutes or dried in air. Put the dried filter membrane into 1450-423 microBeta sample bag, add scintillation liquid, and measure radioactivity (cpm) in Perkin Elmer MicroBeta Trilux 1450 Scintillation Counter.

Turning to “Ac-SDAAVDTSSEITTKDLKEKKEVVEEAENC-NH2 [BMJBT009]”, in data set [1], the half-life was 24 min. The “Concentration of IFN-γ” value with spleen cell (Table 1-1, sample 1 μg/mL) was 1895.7 ± 49.8 pg/mL; in the data set with spleen cell (Table 1-1, sample 10 μg/mL), 1814.5 ± 105.5 pg/mL; in the data set with spleen cell (Table 1-1, sample 100 μg/mL), 672.1 ± 94.3 pg/mL. The “Enhancement percentage” value in the data set with spleen cell (Table 1-1, sample 1 μg/mL) is “+152.2%”; in the data set with spleen cell (Table 1-1, sample 10 μg/mL), “+141.4%”; with spleen cell (Table 1-1, sample 100 μg/mL), −11.0%; in data set [3] (Table 2-1, sample 10 μg/mL), “+84.5%”; in data set [3] (Table 2-1, sample 50 μg/mL) it was “+46.6%”; in data set [3] (Table 2-1, sample 100 μg/mL), “+56.6%”. The AUC (as a rule, the area under the concentration-time curve, a measure of exposure) in data set [2] came to 2.12 µg·h/mL. In addition, the peak concentration (Cmax) (in general, the peak of the concentration-time curve) in data set [2] stood at 443 ng/mL. Moreover, in data set [2], the Tmax (commonly the time from dosing to the highest level) stood at 60 min. Besides, the “3H-TdR incorporation (cpm, x ± SD)” value was found to be 24888 ± 2473 cpm in data set [3] (Table 2-1, sample 10 μg/mL); 24164 ± 2683 cpm in data set [3] (Table 2-1, sample 50 μg/mL); 20574 ± 2746 cpm in data set [3] (Table 2-1, sample 100 μg/mL).
On to “Ac-SDAAVDTSSEITTKDLKEKKCVVEEAEN-OH [BMJBT006]”, for which the half-life in data set [1] was 156 min. Besides, in data set [2], the AUC worked out at 12.8 µg·h/mL, the Cmax stood at 11500 ng/mL and the Tmax amounted to 20 min. In addition, in data set [3] (Table 2-1, sample 10 μg/mL), the “3H-TdR incorporation (cpm, x ± SD)” value amounted to 21152 ± 2936 cpm and the Enhancement percentage entry was “+56.8%”. Further, in data set [3] (Table 2-1, sample 50 μg/mL), the “3H-TdR incorporation (cpm, x ± SD)” value was determined as 19880 ± 1777 cpm and the Enhancement percentage result is given as “+47.4%”. Also, in data set [3] (Table 2-1, sample 100 μg/mL), the “3H-TdR incorporation (cpm, x ± SD)” value is given as 14319 ± 2333 cpm and the Enhancement percentage entry is “+6.2%”.
Consider “Ac-SDAAVDTSSECTTKDLKEKKEVVEEAEN-OH [BMJBT003]”, for which, in data set [1], the half-life is 168 min. In addition, the “Concentration of IFN-γ” value in the data set with spleen cell (Table 1-2, sample 1 μg/mL) is 3428.6 ± 111.9 pg/mL; in the data set with spleen cell (Table 1-2, sample 10 μg/mL), 3732.2 ± 30.2 pg/mL; in the data set on spleen cell (Table 1-2, sample 100 μg/mL), 3990.8 ± 250.0 pg/mL. In addition, the “Enhancement percentage” value in the data set with spleen cell (Table 1-2, sample 1 μg/mL) is recorded as “+5.2%”; in the data set on spleen cell (Table 1-2, sample 10 μg/mL), “+14.5%”; in the data set on spleen cell (Table 1-2, sample 100 μg/mL), “+22.5%”; in data set [3] (Table 2-2, sample 10 μg/mL) it was “+87.5%”; in data set [3] (Table 2-2, sample 50 μg/mL) it was “+77.3%”; in data set [3] (Table 2-2, sample 100 μg/mL), “+30.9%”. The AUC in data set [2] is 8.71 µg·h/mL. The Cmax in data set [2] worked out at 5650 ng/mL. In addition, in data set [2], the Tmax was 20 min. Further, the “3H-TdR incorporation (cpm, x ± SD)” value amounted to 21825 ± 2216 cpm in data set [3] (Table 2-2, sample 10 μg/mL); 20465 ± 2432 cpm in data set [3] (Table 2-2, sample 50 μg/mL); 15240 ± 2369 cpm in data set [3] (Table 2-2, sample 100 μg/mL).
Consider “Ac-SDAAVDTCSEITTKDLKEKKEVVEEAEN-OH [BMJBT002]”, for which, in data set [1], the half-life is 126 min. Also, in data set [2], the exposure (AUC) is 2.44 µg·h/mL, the maximum concentration (Cmax) was found to be 1860 ng/mL and the time to peak (Tmax) is 20 min. In addition, in data set [3] (Table 2-2, sample 10 μg/mL), the “3H-TdR incorporation (cpm, x ± SD)” value worked out at 23881 ± 2809 cpm and the Enhancement percentage result is given as “+105.1%”. Moreover, in data set [3] (Table 2-2, sample 50 μg/mL), the “3H-TdR incorporation (cpm, x ± SD)” value was found to be 19611 ± 2612 cpm and the Enhancement percentage entry is on record as “+68.5%”. In data set [3] (Table 2-2, sample 100 μg/mL), the “3H-TdR incorporation (cpm, x ± SD)” value is recorded as 11956 ± 1555 cpm and the Enhancement percentage entry is recorded as “+2.6%”.
As for “Ac-SDAAVDTSSEITTKDLKEKKEVVCEAEN-OH [BMJBT007]”, the half-life in data set [1] is 30 min. Further, in data set [2], the AUC came to 17.9 µg·h/mL, the maximum concentration (Cmax) was determined as 5990 ng/mL and the time to peak (Tmax) was 20 min.
“Ac-SDAAVDTSSEITTKDCKEKKEVVEEAEN-OH [BMJBT004]”: the half-life in data set [1] was 48 min. In the data set with spleen cell (Table 1-2, sample 1 μg/mL), the “Concentration of IFN-γ” value is on record as 3671.1 ± 86.0 pg/mL and the “Enhancement percentage” value was “+12.7%”. Further, in the data set with spleen cell (Table 1-2, sample 10 μg/mL), the “Concentration of IFN-γ” value amounted to 3216.1 ± 228.6 pg/mL and the “Enhancement percentage” value is given as −1.3%. Also, in the data set with spleen cell (Table 1-2, sample 100 μg/mL), the “Concentration of IFN-γ” value turned out to be 3565.9 ± 77.8 pg/mL and the “Enhancement percentage” value is “+0.5%”. In data set [2], the AUC is 8.76 µg·h/mL, the peak concentration (Cmax) is 4940 ng/mL and the time to peak (Tmax) amounted to 20 min.
On to “Ac-CSDAAVDTSSEITTKDLKEKKEVVEEAEN-OH [BMJBT008]”, for which the half-life in data set [1] was less than 60 min. In addition, in the data set on spleen cell (Table 1-3, sample 1 μg/mL), the “Concentration of IFN-γ” value is given as 4323.8 ± 187.0 pg/mL and the Enhancement percentage entry was “+41.6%”. In addition, in the data set on spleen cell (Table 1-3, sample 10 μg/mL), the “Concentration of IFN-γ” value stood at 3115.0 ± 195.8 pg/mL and the Enhancement percentage result is recorded as “+2.0%”. For the same substance, in the data set on spleen cell (Table 1-3, sample 100 μg/mL), the “Concentration of IFN-γ” value is recorded as 2975.5 ± 182.6 pg/mL and the Enhancement percentage is −2.6%. Moreover, in data set [2], the AUC stood at 1.21 µg·h/mL, the Cmax is 430 ng/mL and the Tmax was 20 min.
